From patent publication US8759500B2, “Crystalline forms of a macrolide, and uses therefor” (Cempra Pharmaceuticals, Inc., priority 2010, dated 2014)
≈ marks a conversion by molar mass, not a printed value. Where two headings read alike, the source gives them in different places.

Tests used:
[1] = Interconversion slurries of Form I and Form II; assay type: physicochemical
Procedure: As shown in the interconversion of slurries experiment summarized below in the Examples in Table B, slurries of Forms I and II are prepared in 2-propanol (IPA) and […] (MEK) at ambient, sub-ambient, and elevated temperatures. In 2-propanol, conversion of Form I to Form II appears to be solubility driven at ambient and sub-ambient temperatures, with little apparent change observed in the ratio of Forms I and II by XRPD analysis over 3 days. Extending the interconversion period to 8 days at room temperature left only a trace of Form I remaining. In 2-propanol, at elevated temperature, only Form II is obtained.
Interconversion studies by slurrying of Form I and Form II are shown in the following Table B in which the starting solid was a mixture of Form I and Form II; IPA is isopropyl alcohol (isopropanol) and MEK is methyl ethyl ketone (2-butanone).

[2] = Balb/c, mouse, in vivo, po, 20 mg/kg
Procedure: (§1) The doses were prepared as 2.0 mg/mL or 10.0 mg/mL in a vehicle of 0.5% (w/v) carboxymethyl cellulose in water and a dose volume of 10 mL/kg b.w. Blood samples were collected at various time points during the next 6 h post dose.

physchem [3] = details: 26 °C, thermodynamic from solid
physchem [4] = details: pH 6.03, saline or isotonic, thermodynamic from solid
in vivo [5] = details: Balb/c, mouse, po
Procedure: as §1

Dynamic vapor sorption = assay type: physicochemical
Procedure: The new physical form, Form I of CEM-101 is a crystalline form which may be described by its X-ray powder diffraction pattern. Peaks at approximate positions of about °2θ=8.8, 10.5, 13.2 and 18.6 are representative of this crystalline form. A more detailed analysis of the peaks is described in Tables 1-2 below. […] Water determination by Karl Fisher titration in typical lots is 0.6 to 1.1%. […] Form I of CEM-101 melts at about 200° C. by DSC analysis.
The new physical form, Form II of CEM-101 is a crystalline form which may be described by its X-ray powder diffraction pattern. Peaks at approximate positions of about °2θ=5.6, 7.9, 9.3, 11.7, 12.9 and 16.7 are representative of this crystalline form. A more detailed analysis of the peaks is described in Tables 3-4 below. Based on a single crystal X-ray determination and dynamic vapor sorption analysis, Form II appears to be a non-hygroscopic anhydrous crystalline form that melts at about 225° C. as a single endothermic event by DSC analysis. It is appreciated herein that non-hygroscopic solids, such as Form II described herein, may be advantageous in the preparation of pharmaceutical compositions. Such advantages include improved handling and stability properties in manufacturing, improved lot to lot quality control.

[6] = female, Balb/c, mouse, in vivo, po
in vivo [7] = details: female, Balb/c, mouse, po; for AUC(0-t): AUC 0-24; for half-life: t½
[8] = Stability of Form I and Form II under various storage conditions; assay type: physicochemical; details: during the entire study, all storage conditions
From the text: In each case, the test material was first placed in Primary Packaging Material (LLDPE bag within a HMHDPE/LDPE/LDPE blend bag, and then heat sealed). The Primary Packaging Material was placed in Secondary Packaging Material (HDPE drum). All other impurities were less than 1% at each time point.

CC[C@H]1OC(=O)[C@@](C)(F)C(=O)[C@H](C)[C@@H](O[C@@H]2O[C@H](C)C[C@H](N(C)C)[C@H]2O)[C@](C)(OC)C[C@@H](C)C(=O)[C@H](C)[C@H]2N(CCCCn3cc(-c4cccc(N)c4)nn3)C(=O)O[C@]12C [CEM-101 Form A and B Solids]
XRPD Result ([1]; slurry in IPA, 2-8° C. 3 days): Form I + II
XRPD Result ([1]; slurry in IPA, 2-8° C. 5 days (8 days total), continuation of previous slurry): Form I + II
XRPD Result ([1]; slurry in IPA, 60° C. 3 days): Form II
XRPD Result ([1]; slurry in IPA, RT 3 days): Form I + II
XRPD Result ([1]; slurry in MEK, 2-8° C. 3 days): Form II
XRPD Result ([1]; slurry in MEK, 60° C. 3 days (6 days total), continuation with additional solids): Form II
XRPD Result ([1]; slurry in MEK, RT 3 days): Form II

CC[C@H]1OC(=O)[C@@](C)(F)C(=O)[C@H](C)[C@@H](O[C@@H]2O[C@H](C)C[C@H](N(C)C)[C@H]2O)[C@](C)(OC)C[C@@H](C)C(=O)[C@H](C)[C@H]2N(CCCCn3cc(-c4cccc(N)c4)nn3)C(=O)O[C@]12C [Form I, solithromycin]
AUCextrap ([2]; female): 24%
AUCextrap ([2]; male): 24%
solubility at 6 h (physchem [3]; pH 1.2, simulated gastric fluid): 4810 µg/mL (≈ 5690 µM)
solubility at 6 h (physchem [3]; pH 4, aqueous buffer): 4660 µg/mL (≈ 5510 µM)
solubility at 6 h (physchem [3]; pH 7.4, aqueous buffer): 2220 µg/mL (≈ 2630 µM)
solubility at 6 h (physchem [3]; pH 9.2, aqueous buffer): 1750 µg/mL (≈ 2070 µM)
solubility at 6 h (physchem [4]): 1410 µg/mL (≈ 1670 µM)
AUC(0-inf) (in vivo [5]; female, 20 mg/kg): 70000 ng·h/mL
AUC(0-t) (in vivo [5]; female, 20 mg/kg): 53000 ng·h/mL
Cmax (in vivo [5]; female, 20 mg/kg): 13600 ng/mL
Tmax (in vivo [5]; female, 20 mg/kg): 0.5 h
concentration at 0 h (in vivo [5]; female, 20 mg/kg): 0 ng/mL
concentration at 0.25 h (in vivo [5]; female, 20 mg/kg): 8200 ± 2400 ng/mL
concentration at 0.5 h (in vivo [5]; female, 20 mg/kg): 13600 ± 2000 ng/mL
concentration at 1 h (in vivo [5]; female, 20 mg/kg): 12000 ± 1700 ng/mL
concentration at 2 h (in vivo [5]; female, 20 mg/kg): 11300 ± 1400 ng/mL
concentration at 4 h (in vivo [5]; female, 20 mg/kg): 7700 ± 700 ng/mL
concentration at 6 h (in vivo [5]; female, 20 mg/kg): 4200 ± 400 ng/mL
AUC(0-t) (in vivo [5]; female, 100 mg/kg): 91000 ng·h/mL
Cmax (in vivo [5]; female, 100 mg/kg): 19500 ng/mL
Tmax (in vivo [5]; female, 100 mg/kg): 6 h
concentration at 0 h (in vivo [5]; female, 100 mg/kg): 0 ng/mL
concentration at 0.25 h (in vivo [5]; female, 100 mg/kg): 11900 ± 1700 ng/mL
concentration at 0.5 h (in vivo [5]; female, 100 mg/kg): 11600 ± 1600 ng/mL
concentration at 1 h (in vivo [5]; female, 100 mg/kg): 14700 ± 2300 ng/mL
concentration at 2 h (in vivo [5]; female, 100 mg/kg): 14100 ± 2900 ng/mL
concentration at 4 h (in vivo [5]; female, 100 mg/kg): 16000 ± 2300 ng/mL
concentration at 6 h (in vivo [5]; female, 100 mg/kg): 19500 ± 2300 ng/mL
AUC(0-inf) (in vivo [5]; male, 20 mg/kg): 46000 ng·h/mL
AUC(0-t) (in vivo [5]; male, 20 mg/kg): 35000 ng·h/mL
Cmax (in vivo [5]; male, 20 mg/kg): 9500 ng/mL
Tmax (in vivo [5]; male, 20 mg/kg): 1 h
concentration at 0 h (in vivo [5]; male, 20 mg/kg): 0 ng/mL
concentration at 0.25 h (in vivo [5]; male, 20 mg/kg): 5300 ± 1800 ng/mL
concentration at 0.5 h (in vivo [5]; male, 20 mg/kg): 7700 ± 1600 ng/mL
concentration at 1 h (in vivo [5]; male, 20 mg/kg): 9500 ± 900 ng/mL
concentration at 2 h (in vivo [5]; male, 20 mg/kg): 6400 ± 800 ng/mL
concentration at 4 h (in vivo [5]; male, 20 mg/kg): 5900 ± 600 ng/mL
concentration at 6 h (in vivo [5]; male, 20 mg/kg): 2600 ± 800 ng/mL
AUC(0-t) (in vivo [5]; male, 100 mg/kg): 83500 ng·h/mL
Cmax (in vivo [5]; male, 100 mg/kg): 17400 ng/mL
Tmax (in vivo [5]; male, 100 mg/kg): 4 h
concentration at 0 h (in vivo [5]; male, 100 mg/kg): 0 ng/mL
concentration at 0.25 h (in vivo [5]; male, 100 mg/kg): 11300 ± 2500 ng/mL
concentration at 0.5 h (in vivo [5]; male, 100 mg/kg): 10700 ± 3000 ng/mL
concentration at 1 h (in vivo [5]; male, 100 mg/kg): 13100 ± 3200 ng/mL
concentration at 2 h (in vivo [5]; male, 100 mg/kg): 13400 ± 3100 ng/mL
concentration at 4 h (in vivo [5]; male, 100 mg/kg): 17400 ± 2900 ng/mL
concentration at 6 h (in vivo [5]; male, 100 mg/kg): 12000 ± 2000 ng/mL
hygroscopicity (Dynamic vapor sorption): partially hygroscopic
AUC 0-24 ([6]; 5 mg/kg): 3.30
Cmax ([6]; 5 mg/kg): 1.43 µg/mL
Tmax ([6]; 5 mg/kg): 0.6 h
t½ ([6]; 5 mg/kg): 1.32 h
AUC 0-24 ([6]; 10 mg/kg): 17.7
Cmax ([6]; 10 mg/kg): 4.68 µg/mL
Tmax ([6]; 10 mg/kg): 2.4 h
t½ ([6]; 10 mg/kg): 3.6 h
AUC 0-24 ([6]; 20 mg/kg): 26.2
Cmax ([6]; 20 mg/kg): 6.64 µg/mL
Tmax ([6]; 20 mg/kg): 1.6 h
t½ ([6]; 20 mg/kg): 2.1 h
AUC(0-t) (in vivo [7]; 5 mg/kg): 3160 ng·h/mL
Cmax (in vivo [7]; 5 mg/kg): 1540 ng/mL
Tmax (in vivo [7]; 5 mg/kg): 0.5 h
half-life (in vivo [7]; 5 mg/kg): 79.2 min
AUC(0-t) (in vivo [7]; 10 mg/kg): 17200 ng·h/mL
Cmax (in vivo [7]; 10 mg/kg): 4090 ng/mL
Tmax (in vivo [7]; 10 mg/kg): 2 h
half-life (in vivo [7]; 10 mg/kg): 177 min
AUC(0-t) (in vivo [7]; 20 mg/kg): 26700 ng·h/mL
Cmax (in vivo [7]; 20 mg/kg): 5910 ng/mL
Tmax (in vivo [7]; 20 mg/kg): 2 h
half-life (in vivo [7]; 20 mg/kg): 115 min
change in color of the test material [8]: no observed change in color
